{"source": "patent US11052072B2", "about": "“Pyrazolo[4,3-C] quinoline derivatives for inhibition of β-glucuronidase” (Kaohsiung Medical University, priority 2015, dated 2021)", "key": {"[1]": {"biological_target": "E. coli β-glucuronidase (eβG) (Escherichia coli, UniProt P05804)", "sequence (P05804 whole entry)": "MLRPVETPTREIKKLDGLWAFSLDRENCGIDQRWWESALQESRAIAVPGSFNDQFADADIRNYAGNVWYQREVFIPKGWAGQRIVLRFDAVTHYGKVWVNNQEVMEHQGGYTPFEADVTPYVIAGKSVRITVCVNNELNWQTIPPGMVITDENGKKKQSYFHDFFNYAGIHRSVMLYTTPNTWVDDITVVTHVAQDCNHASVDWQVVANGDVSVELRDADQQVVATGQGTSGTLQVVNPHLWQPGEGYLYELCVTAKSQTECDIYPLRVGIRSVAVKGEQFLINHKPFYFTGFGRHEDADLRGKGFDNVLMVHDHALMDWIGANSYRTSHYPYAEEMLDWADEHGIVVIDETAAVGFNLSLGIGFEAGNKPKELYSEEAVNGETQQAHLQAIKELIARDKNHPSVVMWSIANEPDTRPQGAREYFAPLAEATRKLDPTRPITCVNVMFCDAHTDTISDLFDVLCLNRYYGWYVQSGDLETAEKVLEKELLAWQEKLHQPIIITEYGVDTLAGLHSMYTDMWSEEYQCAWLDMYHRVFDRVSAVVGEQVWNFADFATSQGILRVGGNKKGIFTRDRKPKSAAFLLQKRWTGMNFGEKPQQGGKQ", "test": "Inhibition of purified recombinant eβG activity (pNPG substrate, OD420)", "assay_type": "biochemical", "protocol": "(§1) The pyrazolo[4,3-c]quinoline derivatives were examined for their inhibition against eβG or hβG activity. Purified recombinant eβG or hβG proteins were incubated with serial dilution of the inhibitors, respectively. The βG activity was determined by color development of a βG substrate, pNPG. The hydrolysis product of pNPG, PNP was measured by OD420."}, "[2]": {"biological_target": "T1, human liver-glucuronidase (hβG) (Homo sapiens, UniProt P08236)", "T1 sequence (P08236 23-651)": "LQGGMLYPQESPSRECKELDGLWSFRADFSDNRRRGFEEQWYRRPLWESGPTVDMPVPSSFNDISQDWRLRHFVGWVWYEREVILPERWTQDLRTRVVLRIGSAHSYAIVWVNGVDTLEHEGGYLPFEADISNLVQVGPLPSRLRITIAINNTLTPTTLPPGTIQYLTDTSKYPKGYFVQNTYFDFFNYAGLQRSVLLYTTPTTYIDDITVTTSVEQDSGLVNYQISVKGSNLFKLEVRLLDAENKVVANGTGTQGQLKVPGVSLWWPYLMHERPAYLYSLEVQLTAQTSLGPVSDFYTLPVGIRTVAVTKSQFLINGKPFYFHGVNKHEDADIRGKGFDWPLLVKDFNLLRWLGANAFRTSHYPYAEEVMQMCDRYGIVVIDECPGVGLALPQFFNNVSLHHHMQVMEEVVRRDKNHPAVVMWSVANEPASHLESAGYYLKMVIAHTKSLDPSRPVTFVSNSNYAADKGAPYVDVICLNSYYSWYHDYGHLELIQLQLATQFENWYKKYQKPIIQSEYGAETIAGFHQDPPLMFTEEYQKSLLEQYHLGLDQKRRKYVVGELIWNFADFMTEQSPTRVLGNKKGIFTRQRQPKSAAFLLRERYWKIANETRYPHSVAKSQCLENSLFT", "test": "Inhibition of purified recombinant hβG activity (pNPG substrate, OD420)", "assay_type": "biochemical", "conditions": "10 μM; purified recombinant hβG, pNPG; means ± S.D. of at least three separate experiments; read-out: Percent activity of human liver-glucuronidase at 10 μM (%)", "protocol": "as §1"}, "[3]": {"biological_target": "T2, endogenous eβG activity (Escherichia coli, UniProt P05804)", "T2 construct": "endogenous in cells; host or cells: BL21 E. coli", "T2 sequence (P05804 whole entry)": "as the sequence (P05804 whole entry) above", "test": "Endogenous β-glucuronidase activity assay in BL21 E. coli cells", "assay_type": "cell-based", "conditions": "at both low (10 μM) or high concentration (50 μM) (FIG. 2)", "protocol": "The pyrazolo[4,3-c]quinoline derivatives were examined for their inhibition against endogenous eβG activity. This assay is similar with the in vitro assay. BL21 E. coli cells were grown to an OD600 of 0.35 in LB medium. E. coli were 4 times diluted and incubated with each inhibitor. The endogenous eβG activity was measured by detecting PNP as described."}, "[4]": {"test_system": "TOP10 E. coli cells", "test": "E. coli growth assay (OD600)", "assay_type": "cell-based", "conditions": "100 μM; OD600 at 6 hour after treatment; TOP10 E. coli (FIG. 4)", "protocol": "The pyrazolo[4,3-c]quinoline derivatives were examined for effects on the growth of E. coli. TOP10 E. coli cells were grown to an OD600 of 0.35 in LB medium and treated with each inhibitor. E. coli cell cultures were monitored by reading OD600 at 6 hour after treatment. The cell viability were compared to non-inhibitor control group and shown in % control."}, "[5]": {"test_system": "intestinal βG activity", "test": "In vivo image of intestinal β-glucuronidase activity (FDGlcU pro-probe)", "parameters": "species or system Balb/cJ mice", "conditions": "mice", "protocol": "17 (TCH-3511) or 32 (TCH-3510) was examined for its inhibition against intestinal βG activity in mice by in vivo image of eβG activity. 5 (TCH-3562), 17 (TCH-3511) or 32 (TCH-3510) was dissolved in ddH2O. Healthy 6-10 week old female Balb/cJ mice were oral administrated with 5 (TCH-3562), 17 (TCH-3511), 32 (TCH-3510) or ddH2O per day (60 μg/200 μl) for five consecutive days. FDGlcU, a βG fluorescent pro-probe was oral feed at the sixth day. The βG activity was detected by in vivo optical imaging system."}, "[6]": {"test_system": "CPT-11 induced diarrhea", "test": "CPT-11 induced diarrhea in tumor-bearing mice", "assay_type": "in vivo, Balb/cJ mice", "conditions": "3 mg/kg/day oral with CPT-11 50 mg/kg/day i.p.; CT26 tumor-bearing mice (FIG. 6A)", "protocol": "(§2) FIGS. 6A and B show the effects of 17 (TCH-3511) on diarrhea and antitumor activity of CPT-11. Mice were inoculated with CT26 cells on day −7. Either water or 17 (TCH-3511) 3 mg/kg/day was orally administrated per day throughout the experimental period (day 0 onward). Mice were given daily intraperitoneal either CPT-11 treatment (50 mg/kg/day) or saline staring on day 2. Diarrhea level and tumor size was scored every other day.\n(§3) 17 (TCH-3511) was given to mice to test whether inhibition of intestinal βG by bacterial inhibitor 17 (TCH-3511) eliminates CPT-11-induced diarrhea and maintain the therapeutic efficacy in combination with CPT-11 in tumor-bearing mice. CT26 murine colon adenocarcinoma cells were s.c. implanted into Balb/cJ mice. After solid tumor formed, 17 (TCH-3511) (3 mg/kg/day) was provided orally along with intraperitoneal injection of CPT-11 (50 mg/kg/day). Signs of diarrhea were according to stool forms and the perianal staining of the anus."}, "[7]": {"test_system": "CT26 murine colon adenocarcinoma cells", "test": "Anti-tumor efficacy of CPT-11 in CT26 tumor-bearing mice", "assay_type": "in vivo, Balb/cJ mice", "conditions": "3 mg/kg/day oral with CPT-11 50 mg/kg/day i.p.; CT26 tumors (FIG. 6B)", "protocol": "as §2, §3"}, "[8]": {"test_system": "DMH induced tumorigenesis in the intestine", "test": "DMH induced tumorigenesis in the intestine", "assay_type": "in vivo, C57BL/6J-APC^MIN/J mice", "protocol": "Either water or 17 (TCH-3511) 3 mg/kg/day was orally administrated three times per week throughout the experimental period (8 week). Mice were given intraperitoneal DMH (30 mg/kg/week).\n17 (TCH-3511) was given to C57BL/6J-APC^MIN/J mice to check whether prevent DMH-induced intestinal damage and tumorigenesis. 17 (TCH-3511) (3 mg/kg, 3 times/week) was provided orally along with intraperitoneal injection of DMH (30 mg/kg, once/week). After 8 weeks of treatment, mice were sacrificed and the tumor in the intestine was examined."}}, "note": "“Also recorded” adds a separate entry of the source."}
{"compound": "Nc1n[nH]c2c1c(Nc1ccc(F)cc1)nc1ccccc12", "note": "[Compound 17, 3-Amino-4-(4-fluorophenylamino)-1H-pyrazolo[4,3-c]quinoline]", "values": [{"measurement": "Inhibition efficacy of eβG activity compared with βG-Inh", "setting": "[1]; FIG. 1", "result": "better inhibition efficacy of eβG activity than βG-Inh"}, {"measurement": "remaining activity at 10 µM", "setting": "[1]; read-out: Percent activity of E. coli-glucuronidase at 10 μM (%)", "result": "5 ± 1", "unit": "%"}, {"measurement": "Selective inhibition of eβG versus hβG (in words)", "setting": "[1]; recombinant eβG and hβG, serial dilution of inhibitors (FIG. 1)", "result": "selectively inhibited eβG activity but not hβG"}, {"measurement": "remaining activity at 10 µM", "setting": "[2]", "result": "99 ± 1.41", "unit": "%"}, {"measurement": "Inhibition efficacy of endogenous eβG activity compared with βG-Inh", "setting": "[3]", "result": "better inhibition efficacy of endogenous eβG activity than βG-Inh"}, {"measurement": "Effects on E. coli growth", "setting": "[4]", "result": "no effects on E. coli growth"}, {"measurement": "Inhibition of intestinal βG activity, comparison between compounds", "setting": "[5]; in vivo optical imaging (FIG. 5B)", "result": "better than 32 (THC-3510)"}, {"measurement": "Inhibition of intestinal βG activity (fluorescence signal in the intestine)", "setting": "[5]; oral 60 μg/200 μl per day for five days, FDGlcU on sixth day (FIG. 5A), listed as 17 (TCH-3511)", "result": "significantly reduced the fluorescence signal in the intestine; also recorded: significantly inhibit intestinal βG activity"}, {"measurement": "Effect on CPT-11 induced diarrhea", "setting": "[6]", "result": "can reduce CPT-11 induced diarrhea"}, {"measurement": "Effect on anti-tumor efficacy of CPT-11 treatment", "setting": "[7]", "result": "no effects on the anti-tumor efficacy of CPT-11 treatment"}, {"measurement": "Number of tumors in the intestine", "setting": "[8]; 3 mg/kg oral 3 times/week with DMH 30 mg/kg i.p. once/week, after 8 weeks (FIG. 7), DMH only group more than 26", "result": "six"}, {"measurement": "Effect on DMH-induced intestinal damage and tumorigenesis", "setting": "[8]; 3 mg/kg oral 3 times/week with DMH 30 mg/kg/week i.p., 8 weeks (FIG. 7), listed as 17 (TCH-3511)", "result": "can reduce DMH-induced intestinal damage and prevent tumorigenesis"}, {"measurement": "melting point", "result": "266 to 268", "unit": "°C"}]}
